{
  "source": "patent EP3710011B1",
  "about": "“PENTACYCLIC TRITERPENES FOR THE TREATMENT OF AN ORAL DISEASE” (PIERRE FABRE MEDICAMENT, priority 2017, dated 2019)",
  "key": {"[1]": {"system": "Staphylococcus aureus CIP4.83", "experiment": "Determination of minimal inhibitory (CMI) and minimal bactericidal (CMB) concentration, liquid micro-method then subculture on agar", "assay_type": "cell-based", "conditions": "for CMB / CMI / CMB (DMSO dilution) / CMI (DMSO dilution): S. aureus; for CMB / CMI: purified sample dissolved in DMSO; for CMB (DMSO dilution): real dilution (DMSO) at the CMB point; for CMI (DMSO dilution): real dilution (DMSO) at the CMI point", "description": "• L'échantillon « Extrait CCV » obtenu tel que dans l'exemple 1 est titré à 150 µg/ml en Célastrol, 40 µg/ml en Tingénine A et 20 µg/ml en Tingénine B, dissouts dans du pentylène glycol 100 %. Pour les besoins du dosage, il est dilué à 2 % dans de l'eau pour préparation injectable (PPI). • L'échantillon « Tingénine A » est titré à 150 µg/ml dans du DMSO 10 %. • L'échantillon « Tingénine B » est titré à 150 µg/ml du DMSO 10 %. • L'échantillon « Célastrol » est titré à 150 µ/ml dans du DMSO 10 %.\nLes souches bactériennes utilisées sont : • Staphylococcus aureus CIP4.83 entretenue sur milieu gelosé Trypticase-soja à 36 +/- 1 °C. • Fusobacterium nucleatum CIP101130T entretenue sur milieu gélosé Columbia + 5 % de sang de mouton à 36+/-1 °C en anaérobiose\nLa détermination de la Concentration Minimale Inhibitrice (CMI) est réalisée par micro-méthode en milieu liquide. 100 µL de milieu de culture Muller Hinton sont déposés dans chaque puits d'une microplaque de 96 puits stérile. 100 µL de l'échantillon à tester sont déposés dans la colonne 1 de la microplaque (deux puits par extrait à tester). Des dilutions de raison 2 sont réalisées de la façon suivante : 100 µL sont prélevés dans les puits de la colonne 1 puis ajouté et mélangés aux puits de la colonne 2. Cette opération est répétée jusqu'à la colonne 10. Les 100 µL prélevés dans la colonne 10 sont éliminés. La colonne 11 est utilisée comme témoin positif (milieu de culture + bactérie à tester). La colonne 12 est utilisée comme témoin négatif (milieu de culture seul). La microplaque est ensemencée (hors témoin négatif de croissance). Après une incubation de 16 à 24 h l'observation de la croissance à l'œil nu permet de déterminer une CMI (la plus faible concentration en extrait qui inhibe la croissance).\nLa détermination de la Concentration Minimale Bactéricide (CMB) est réalisée par repiquage des microplaques CMI sur un milieu Muller Hinton gélosé. Après incubation, la CMB correspond à la plus faible concentration de l'extrait testé pour laquelle on observe une absence de croissance.\nDans les tableaux 1 et 2 présentant les résultats comparatifs des différents échantillons testés sont indiqués : • 1. Pour l'extrait CCV, les CMI/CMB sont des concentrations équivalentes en célastrol. En effet, cet extrait est une solution qui contient majoritairement du Célastrol (Célastrol > 50 %, Tingénine A > 5 % et Tingénine B > 5 %). L'extrait est dissout dans du Pentylène Glycol (PG), on a le % (P/P) correspondant à la dilution réelle au point de CMI ou de CMB, et on en déduit la concentration équivalente en Célastrol grâce au titre (150 µg/ml) quantifié par HPLC. • 2. Pour les échantillons de Célastrol, de Tingénine A et de Tingénine B purifiés et dissouts dans le DMSO, le % mentionné correspond à la dilution réelle au point de CMI ou de CMB. • 3. Pour les solvants de contrôle DMSO et Pentylène Glycol (PG) testés en parallèle, le % correspond à la dilution réelle au point de CMI ou de CMB."}, "[2]": {"system": "kératinocytes humains oraux", "experiment": "RT-qPCR of inflammatory marker expression in oral keratinocytes stimulated with IL-17, IL-22 and TNF-alpha", "assay_type": "cell-based", "description": "(§1) • L'échantillon « Extrait CCV » est obtenu tel que décrit dans l'exemple 1 et est dilué dans du DMSO 0,4% afin d'obtenir une concentration en célastrol de 137 µg/mL; trois doses sont testées, à savoir 10, 30 et 100 ng/mL. • L'échantillon « Célastrol » 150 µg/mL dans du DMSO 0,4 %; trois doses sont testées à savoir 10, 30 et 100 ng/mL.\n(§2) Les échantillons contrôles sont les suivants : • L'échantillon témoin négatif « DMSO » (DMSO à 0,4%); et • L'échantillon témoin positif « Inhibiteur JAK » comprenant 10 µM d'inhibiteur JAK (JAK Inhibitor I - CAS 457081-03-7 - Calbiochem).\n(§3) La lignée cellulaire utilisée est une lignée de kératinocytes humains oraux (CliniSciences ref.2610-SC). Cette lignée est cultivée à 37 °C, sous atmosphère 5 % de CO2 dans un milieu adapté (Oral Keratinocyte medium OKM supplémenté avec de la pénicilline 100 U/mL et de la streptomycine 100 µg/mL).\n(§4) Les kératinocytes humains oraux sont ensemencés dans des puits de plaques à 24 puits (75 000 cellules/puits) et cultivés pendant 24h. Le milieu de culture est alors remplacé par du milieu frais contenant les échantillons à tester, et les cellules sont à nouveau incubées pendant 24h. L'opération est renouvelée à nouveau en présence d'un mix de cytokines stimulatrice des kératinocytes : IL-17, IL-22 et TNF-alpha à 3 ng/ml chacune. Le temps de culture est de 24h pour les expériences de RT-pPCR et de 48 pour les expériences d'ELISA. Les cellules sont ensuite lavées dans une solution de PBS et congelées immédiatement à - 80 °C.\n(§5) Les expériences ont été réalisées en triplicats.\nL'expression des marqueurs IL-8, CXCL1, DEBF4A, S100A7, IL-36 gamma et MMP9, par les kératinocytes est déterminée par RT-qPCR comme décrit dans la littérature avec des kits de Reverse transcriptase (Roche) et de PCR quantitative. Un témoin positif de PCR (GAPDH), exprimé constitutivement, est réalisé en parallèle afin de normaliser les résultats obtenus."}, "[3]": {"system": "kératinocytes humains oraux", "experiment": "ELISA of IL-8, hBD-2 and MMP-9 secreted by oral keratinocytes stimulated with IL-17, IL-22 and TNF-alpha", "assay_type": "cell-based", "conditions": "48h stimulation; for inhibition at 10 µM: Keratinocyte", "description": "as §1, §2, §3, §4, §5\nLa quantité d'IL8, hBD-2 (DEBF4A) et de MMP-9 sécrétée par les kératinocytes dans le milieu de culture après 48h de stimulation est mesurée par ELISA."}, "lymphocytes T CD4+": {"system": "lymphocytes T CD4+", "experiment": "Anti-TH17 activity: cytokines secreted by CD4+ T lymphocytes activated with anti-CD3/anti-CD28 (Multiplex Immunoassays)", "assay_type": "cell-based, humaines", "conditions": "2 µM", "description": "L'échantillon « Extrait CCV » est obtenu tel que dans l'exemple 1 et est dilué dans 0,4 % DMSO afin d'obtenir les différentes concentrations finales suivantes après ajout dans les puits : • Extrait 2 (titré en Célastrol à 9 ng/ml); • Extrait 3 (titré en Célastrol à 30 ng/ml); et • Extrait 4 (titré en Célastrol à 90 ng/ml).\nLes échantillons contrôles sont les suivants : • Contrôle négatif 1 (solution DMSO à 0,4 %); et • Contrôle positif 5 : dexaméthasone (Dexa) à 2 µM (concentration finale dans le puits).\nLes cellules T humaines ont été isolées à partir de cellules mononuclées de sang de deux donneurs sur Ficoll Paque plus (selon le protocole du fabricant). Les cellules CD4+ sont isolées par tri positif (Kit Miltenyi Biotec (CD4) et colonne LS) et remises en suspension dans du milieu de culture RPMI (Sigma Aldrich : L-Glutamine et sérum foetal bovin à 10 %) additionné de […] de streptomycine et 100 U/mL de pénicilline.\nLes Lymphocytes en suspension sont répartis dans des puits de microplaques. […]\nLa quantité de cytokine IL17A, IFN gamma, IL22, TNF alpha et IL6 sécrétée dans le surnageant de culture des lymphocytes est ensuite mesurée par la méthode Multiplex Immunoassays (tel que notamment décrit dans Jager et al. Clin. Diagn. Lab. Immunol. 2003, 10(1), 133-139)."}},
  "note": "Like-named read-outs stand apart in the source and are kept apart here.",
  "data": [
    {"smiles": "CC1=C(O)C(=O)C=C2C1=CC=C1[C@@]2(C)CC[C@@]2(C)[C@@H]3C[C@](C)(C(=O)O)CC[C@]3(C)CC[C@]12C", "note": "[Célastrol]", "values": [
      {"measurement": "CMB", "setting": "[1]", "result": "0,59 µg/ml"},
      {"measurement": "CMI", "setting": "[1]", "result": "0,29 µg/ml"},
      {"measurement": "CMB (DMSO dilution)", "setting": "[1]", "result": "0,04%"},
      {"measurement": "CMI (DMSO dilution)", "setting": "[1]", "result": "0,01%"},
      {"measurement": "expression des marqueurs IL-8, DEFBA4, S100A7, IL-36 gamma et MMP9", "setting": "[2]; 10, 30 and 100 ng/mL, 24h stimulation", "result": "inhibition claire, significative et dose dépendante"},
      {"measurement": "inhibition de l'expression du marqueur MMP9", "setting": "[3]; at 30 ng/ml", "result": "~40", "unit": "%"}
    ]},
    {"smiles": "CC1=C(O)C(=O)C=C2C1=CC=C1[C@@]2(C)CC[C@@]2(C)[C@@H]3C[C@@H](C)C(=O)C[C@]3(C)CC[C@]12C", "note": "[Tingénine A]", "values": [
      {"measurement": "CMB", "setting": "[1]", "result": "2,34 µg/ml"},
      {"measurement": "CMI", "setting": "[1]", "result": "1,17 µg/ml"},
      {"measurement": "CMB (DMSO dilution)", "setting": "[1]", "result": "0,08%"},
      {"measurement": "CMI (DMSO dilution)", "setting": "[1]", "result": "0,08%"}
    ]},
    {"smiles": "CC1=C(O)C(=O)C=C2C1=CC=C1[C@@]2(C)CC[C@@]2(C)[C@@H]3C[C@@H](C)C(=O)[C@@H](O)[C@]3(C)CC[C@]12C", "note": "[Tingénine B, 22 béta-Hydroxy-tingénone]", "values": [
      {"measurement": "CMB", "setting": "[1]", "result": "1,17 µg/ml"},
      {"measurement": "CMI", "setting": "[1]", "result": "0,59 µg/ml"},
      {"measurement": "CMB (DMSO dilution)", "setting": "[1]", "result": "0,08%"},
      {"measurement": "CMI (DMSO dilution)", "setting": "[1]", "result": "0,04%"},
      {"measurement": "activité anti S. aureus, fois supérieure à celle de la Tingénine A", "setting": "[1]; ratio versus Tingénine A", "result": "2-4 fois"}
    ]},
    {"smiles": "C[C@@H]1C[C@H]2[C@@H]3CCC4=CC(=O)C=C[C@]4(C)[C@@]3(F)[C@@H](O)C[C@]2(C)[C@@]1(O)C(=O)CO", "note": "[dexaméthasone]", "values": [
      {"measurement": "surexpression des cytokines IL-17A, IFN gamma, IL-22, TNF alpha et IL-6", "setting": "lymphocytes T CD4+", "result": "inhibe la surexpression de toutes les cytokines"}
    ]},
    {"smiles": "CC(C)(C)c1nc2c3ccc(F)cc3c3c(=O)[nH]ccc3c2[nH]1", "note": "[inhibiteur JAK, JAK Inhibitor I]", "values": [
      {"measurement": "expression de l'IL-36 gamma et de la MMP9", "setting": "[2]; 10 µM", "result": "n'inhibe ni l'IL-36 gamma ni la MMP9"},
      {"measurement": "expression d'IL8, de DEFB4A et de S100A7", "setting": "[2]; 10 µM, versus negative control", "result": "diminution de l'expression"},
      {"measurement": "augmentation de la sécrétion de MMP-9", "setting": "[3]; 10 µM", "result": 60, "unit": "%"},
      {"measurement": "inhibition at 10 µM", "setting": "[3]; 10 µM, read-out: inhibition de la sécrétion d'IL-8", "result": 69, "unit": "%"},
      {"measurement": "inhibition at 10 µM", "setting": "[3]; 10 µM, read-out: inhibition de la sécrétion de β-défensine-2", "result": 82, "unit": "%"}
    ]}
  ]
}
